Measurements taken from BindingDB's records for doi:10.1021/jm0002782 (Abbott Laboratories, 2000).

Assay: Evaluated for its ability to block the adherence of JY-8 cells to immobilized ICAM-1.

SMILES	IC50
O=C(/C=C/c1ccccc1Sc1ccc(Cl)cc1Cl)N1CCOCC1 [3-[2-(2,4-Dichloro-phenylsulfanyl)-phenyl]-1-morpholin-4-yl-propenone]	5300 nM
O=C(/C=C/c1ccccc1Sc1ccc(Cl)cc1Cl)NCCCCCCO [3-[2-(2,4-Dichloro-phenylsulfanyl)-phenyl]-N-(6-hydroxy-hexyl)-acrylamide]	2100 nM
O=C(/C=C/c1ccc(Sc2ccc(Cl)cc2Cl)c([N+](=O)[O-])c1)NCCCN1CCCC1=O [3-[4-(2,4-Dichloro-phenylsulfanyl)-3-nitro-phenyl]-N-[3-(2-oxo-pyrrolidin-1-yl)-propyl]-acrylamide]	140 nM
O=C(/C=C/c1ccc(Sc2ccccc2/C=C/C(=O)N2CCOCC2)c(Cl)c1)N1CCOCC1 [3-{3-Chloro-4-[2-(3-morpholin-4-yl-3-oxo-propenyl)-phenylsulfanyl]-phenyl}-1-morpholin-4-yl-propenone]	190 nM
O=C(/C=C/c1ccc(Sc2ccccc2CN2CCN(Cc3ccc4c(c3)OCO4)CC2)c(Cl)c1)N1CCOCC1 [3-{4-[2-(4-Benzo[1,3]dioxol-5-ylmethyl-piperazin-1-ylmethyl)-phenylsulfanyl]-3-chloro-phenyl}-1-morpholin-4-yl-propenone]	360 nM

Further lines, results first:

IC50	SMILES
240 nM	CC(=O)N1CCN(C(=O)/C=C/c2ccc(Sc3ccc(Cl)cc3Cl)c(Cl)c2)CC1 [1-(4-Acetyl-piperazin-1-yl)-3-[3-chloro-4-(2,4-dichloro-phenylsulfanyl)-phenyl]-propenone]
63 nM	CC(=O)N1CCN(C(=O)/C=C/c2ccc(Sc3ccc(Cl)cc3Cl)c([N+](=O)[O-])c2)CC1 [1-(4-Acetyl-piperazin-1-yl)-3-[4-(2,4-dichloro-phenylsulfanyl)-3-nitro-phenyl]-propenone]
100 nM	CCc1ccccc1Sc1ccc(/C=C/C(=O)N2CCN(C(C)=O)CC2)cc1[N+](=O)[O-] [1-(4-Acetyl-piperazin-1-yl)-3-[4-(2-ethyl-phenylsulfanyl)-3-nitro-phenyl]-propenone]

Assay: as above
Remark: another data set of the same source

IC50	SMILES
700 nM	O=C(/C=C/c1ccc(Sc2ccc(Cl)cc2Cl)c(Cl)c1)NCCCN1CCCC1=O [3-[3-Chloro-4-(2,4-dichloro-phenylsulfanyl)-phenyl]-N-[3-(2-oxo-pyrrolidin-1-yl)-propyl]-acrylamide]
